Key:
[1] = target: T1, delF508-CFTR (Homo sapiens, UniProt P13569, DEL508-508); test: delF508-CFTR functional activity in primary human bronchial epithelial cells (HBECs), Multi-Transepithelial Clamp Circuit (MTECC-24) assay; assay type: cell-based; conditions: for EC50: primary human delF508-CFTR bronchial epithelial cells, 24 h with compound, equivalent short circuit current (Ieq), forskolin plus potentiator, mean of at least two replicates, read-out: MTECC24-CFHBEC EC50; for MTECC24-CFHBEC Amax %: test compound added 24 h before assay, with potentiator (S)-3-amino-6-methoxy-N-(3,3,3-trifluoro-2-hydroxy-2-methylpropyl)-5-(trifluoromethyl)picolinamide, relative to 2 μM 3-(6-(1-(2,2-difluorobenzo[d][1,3]dioxol-5-yl)cyclopropane-1-carboxamido)-3-methylpyridin-2-yl)benzoic acid + 0.5 μM N-(2,4-di-tert-butyl-5-hydroxyphenyl)-4-oxo-1,4-dihydroquinoline-3-carboxamide
T1 construct: expressed in transfected cells
Description: Measurement of delF508-CFTR Functional Activity in Primary Human Bronchial Epithelial Cells (HBECs) Using Multi-Transepithelial Clamp Circuit (MTECC-24) Assay
This assay measures the functional activity of the CFTR channel (Chloride ion transport) in patient derived primary human bronchial epithelial cells with forskolin activation and in the presence of the CFTR corrector/potentiator combination.
Primary human delF508-CFTR bronchial epithelial cells were and cultured according to previously established methods (Neuberger, T. et, al., Methods in Molecular Biology, 2011, 741, pp 39-54). Briefly, before thawing the HBEC cells, T25 flasks were coated with 2 mL of 3T3 conditioned media (MTI-GlobalStem, Cat #GSM9100) for at least 12 hours in 37° C. CO2 incubator. 1.7×10^5 cells were seeded into one T25 flask with 5 mL of HBE growth media (BEBM with supplements (Lonza, Cat #CC-3170) with 10 nM of retinoic acid (Sigma, Cat #R-2625) and 1% of PSA (Hyclone, Cat #SV30079.01). Media was changed every day till the cells were 100% confluent. Cells were seeded into T75 flasks (pre-coated with 5 mL of 3T3 conditioned media for more than 12 hrs) at 4.95×10^5 cells/T75 flask in 15 mL of HBE growth media. Flasks were fed everyday with fresh HBE growth media until the cells were confluent. 24-well transwell plates (Corning, Cat #3378) were coated with 3T3 conditioned media (70 μL on top of the filter, 350 μL to the bottom of the well) overnight in the 37° C. CO2 incubator. Cells were seeded in the pre-coated 24-well transwell plates at 1.7×10^5 cell/well with 700 μL of growth media at the bottom of the well and 200 μL of growth media at the top of the filter. After 24 hrs, cells were switched into HBE differentiation media ((DMEM/F12 (Gibco, Cat #11330-032) supplement with 2% Ultroser G (Pall, Cat #15950-017), 2% of Fetal Clone II (Hyclone, Cat #SH30066.03), 0.25% Bovine Brain Extract (Lonza, Cat #CC-4098), 1% of PSA, 2.5 μg/mL of Insulin (Sigma, Cat #19278), 20 nM of Hydrocortisone (Sigma, Cat #H0888), 500 nM of Triiodothyronine (Sigma, Cat #T6397), 2.5 μg/mL of Transferrin (Sigma, Cat #T8158), 250 nM of Ethanolamine (Sigma, Cat #E0135), 1.5 μM of Epinephrine (Sigma, Cat #E4250), 250 nM of Phosphoethanolamine (Sigma, Cat #P0503), 10 nM of retinoic acid)) with 200 μL on top of the filter (apical side) and 700 μL at the bottom of the well (basolateral side). Cells were fed every other day with the differentiation media. After 4 days, cells were exposed to air/liquid interface. Then cells were fed every other day for 4 weeks before fully differentiated.
Cells were washed with 3 mM DTT in PBS at 70 ul/well for 30 min at 37° C. 6 days before the assay. 3 days before the assay, cells were washed again with PBS at 70 ul/well for 30 min at 37° C. Then cells were treated with compound for 24 hrs before the assay.
Following 24 hr treatment with compound, cells were transferred into plates containing 750 ul of assay media on basolateral side and 250 ul on apical side (Assay medium: F-12 Coon's modified, 20 mM HEPES pH7.4 with TRIS Base, No FCS or bicarbonate). The plates wee then transferred to the heated plate compartments (basolateral buffer temperature ˜36.5° C. on the heating block) of the TECC24 system for 45 mins prior to measurements.
Modulators were added sequentially as follows while the TECC24 instrument recorded the equivalent short circuit current (Ieq):
Prior to dilution into assay medium the stocks were as follows: • Benzamil stock: 10 mM in DMSO • Forskolin Stock: 50 mM in DMSO • N-(2,4-di-tert-butyl-5-hydroxyphenyl)-1,4-dihydro-4-oxoquinoline-3-carboxamide: 50 mM in DMSO • (S)-3-amino-6-methoxy-N-(3,3,3-trifluoro-2-hydroxy-2-methylpropyl)-5-(trifluoromethyl)picolinamide: 50 mM stock 100% DMSO • Bumetanide stock: 20 mM in EtOH
The data was normalized using the median signal from wells treated with 0.1% DMSO as a baseline. Curve fitting and EC50 calculations were performed using the following equation: […]

[2] = target: T1, delF508-CFTR; test: Measurement of delF508-CFTR-HRP surface expression in CFBE41o- cells; assay type: cell-based; conditions: for EC50: HRP-tagged delF508-CFTR in CFBE41o- cells, 24 h with compound, luminescence, 10-point curve, top 10 μM; for Emax: efficacy relative to reference compound 3-(6-(1-(2,2-difluorobenzo[d][1,3]dioxol-5-yl)cyclopropane-1-carboxamido)-3-methylpyridin-2-yl)benzoic acid, CFBE41o- cells, 24 h, read-out: DelF508-CFTR-HRP Amax %
Method in brief: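 CFBE41o- cells stably expressing delF508-CFTR with HRP in the fourth extracellular loop, induced with 500 ng/mL doxycycline for 48 h, then treated with compound (top 10 μM, 10-point 3-fold) for 24 h at 37° C. Surface HRP detected by luminescence with cell-impermeant substrate; EC50 from logistic fit of triplicates, normalized to lowest concentration.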

T1 sequence (P13569 with tags, fused parts or gaps DEL508-508): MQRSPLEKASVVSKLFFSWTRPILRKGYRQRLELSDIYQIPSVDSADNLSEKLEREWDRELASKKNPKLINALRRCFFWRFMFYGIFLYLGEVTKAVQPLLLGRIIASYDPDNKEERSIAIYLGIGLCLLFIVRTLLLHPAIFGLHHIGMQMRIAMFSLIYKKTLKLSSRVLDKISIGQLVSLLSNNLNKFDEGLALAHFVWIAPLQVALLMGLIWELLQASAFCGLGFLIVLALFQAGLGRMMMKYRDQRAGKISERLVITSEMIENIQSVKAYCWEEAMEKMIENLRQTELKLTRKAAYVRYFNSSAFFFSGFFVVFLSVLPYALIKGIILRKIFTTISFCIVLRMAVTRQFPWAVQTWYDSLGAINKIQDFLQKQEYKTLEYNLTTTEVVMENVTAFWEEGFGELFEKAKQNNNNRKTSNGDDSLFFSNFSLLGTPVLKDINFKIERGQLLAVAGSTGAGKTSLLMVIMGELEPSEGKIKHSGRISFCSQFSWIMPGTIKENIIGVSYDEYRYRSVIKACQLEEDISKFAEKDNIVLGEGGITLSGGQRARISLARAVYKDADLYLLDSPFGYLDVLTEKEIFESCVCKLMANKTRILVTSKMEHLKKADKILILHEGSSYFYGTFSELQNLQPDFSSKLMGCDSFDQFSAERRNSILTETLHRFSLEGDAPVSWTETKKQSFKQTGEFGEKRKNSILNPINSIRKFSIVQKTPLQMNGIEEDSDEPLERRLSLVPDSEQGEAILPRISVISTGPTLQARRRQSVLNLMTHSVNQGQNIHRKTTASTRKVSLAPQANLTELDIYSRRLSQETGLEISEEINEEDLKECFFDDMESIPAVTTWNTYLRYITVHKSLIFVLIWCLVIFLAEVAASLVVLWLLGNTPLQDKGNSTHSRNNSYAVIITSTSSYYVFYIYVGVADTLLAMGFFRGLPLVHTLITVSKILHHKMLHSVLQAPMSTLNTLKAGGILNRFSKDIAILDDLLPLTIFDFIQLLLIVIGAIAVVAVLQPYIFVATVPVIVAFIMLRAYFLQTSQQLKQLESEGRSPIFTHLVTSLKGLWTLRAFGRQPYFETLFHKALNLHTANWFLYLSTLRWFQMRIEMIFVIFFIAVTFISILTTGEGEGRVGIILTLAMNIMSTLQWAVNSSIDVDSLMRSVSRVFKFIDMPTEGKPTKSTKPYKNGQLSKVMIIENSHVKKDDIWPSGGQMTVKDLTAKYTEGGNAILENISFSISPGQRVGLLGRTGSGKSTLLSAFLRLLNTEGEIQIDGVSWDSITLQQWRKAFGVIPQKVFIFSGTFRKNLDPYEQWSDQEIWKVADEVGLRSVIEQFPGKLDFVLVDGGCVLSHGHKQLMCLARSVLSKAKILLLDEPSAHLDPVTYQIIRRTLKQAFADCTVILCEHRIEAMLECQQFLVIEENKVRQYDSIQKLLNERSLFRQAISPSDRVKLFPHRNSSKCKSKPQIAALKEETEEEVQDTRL

| Structure (SMILES) | EC50 [1] [µM] | MTECC24-CFHBEC Amax % [1] [%] | EC50 [2] [µM] | Emax [2] [%] |
| --- | --- | --- | --- | --- |
| CCN(CCC(=O)O)c1cccc(S(=O)(=O)Nc2ccc(C(F)(F)F)c(-c3ccccc3C3CC3)n2)n1 [Compound 80, 3-((6-(N-(6-(2-cyclopropylphenyl)-5-(trifluoromethyl)pyridin-2-yl)sulfamoyl)pyridin-2-yl)(ethyl)amino)propanoic Acid] | 0.105 | 95 | 1.93 | – |
| Cc1ccccc1-c1nc(NS(=O)(=O)c2cccc(N(C)CCCCC(=O)O)n2)ccc1C(F)(F)F [Compound 66, 5-(methyl(6-(N-(6-(o-tolyl)-5-(trifluoromethyl)pyridin-2-yl)sulfamoyl)pyridin-2-yl)amino)pentanoic Acid] | 0.185 | 133 | 1.6 | – |
| Cc1ccccc1-c1nc(NS(=O)(=O)c2cccc(N(CCC(=O)O)C3CC3)n2)ccc1C(F)(F)F [Compound 118, 3-(cyclopropyl(6-(N-(6-(o-tolyl)-5-(trifluoromethyl)pyridin-2-yl)sulfamoyl)pyridin-2-yl)amino)propanoic Acid] | 0.27 | 151 | 1.85 | 563 |
| Cc1ccc(F)cc1-c1nc(NS(=O)(=O)c2cccc(N(CCC(=O)O)CC(C)C)n2)ccc1C(F)(F)F [Compound 126, 3-((6-(N-(6-(5-fluoro-2-methylphenyl)-5-(trifluoromethyl)pyridin-2-yl)sulfamoyl)pyridin-2-yl)(isobutyl)amino)propanoic Acid] | 0.014 | 207 | 0.97 | – |
| Cc1ccccc1-c1nc(NS(=O)(=O)c2cccc(N(CCCC(=O)O)CC3CC3)n2)ccc1C(F)(F)F [Compound 103, 4-((cyclopropylmethyl)(6-(N-(6-(o-tolyl)-5-(trifluoromethyl)pyridin-2-yl)sulfamoyl)pyridin-2-yl)amino)butanoic Acid] | 0.073 | 142 | 1.43 | – |
| Cc1ccccc1-c1nc(NS(=O)(=O)c2cccc(N(CCCC(=O)O)CCC(F)(F)F)n2)ccc1C(F)(F)F [Compound 134, 4-((6-(N-(6-(o-tolyl)-5-(trifluoromethyl)pyridin-2-yl)sulfamoyl)pyridin-2-yl)(3,3,3-trifluoropropyl)amino)butanoic Acid] | 0.114 | 189 | 1.37 | – |
| Cc1ccccc1-c1nc(NS(=O)(=O)c2cccc(N3CCC[C@@H](CC(=O)O)C3)n2)ccc1C(F)(F)F [Compound 60, (S)-2-(1-(6-(N-(6-(o-tolyl)-5-(trifluoromethyl)pyridin-2-yl)sulfamoyl)pyridin-2-yl)piperidin-3-yl)acetic Acid] | 0.065 | 128 | 1.91 | 997 |
| Cc1ccc(F)cc1-c1nc(NS(=O)(=O)c2cccc(N(CCCC(=O)O)CC(C)C)n2)ccc1C(F)(F)F [Compound 127, 4-((6-(N-(6-(5-fluoro-2-methylphenyl)-5-(trifluoromethyl)pyridin-2-yl)sulfamoyl)pyridin-2-yl)(isobutyl)amino)butanoic Acid] | 0.021 | 247 | 0.72 | – |
| Cc1ccccc1-c1nc(NS(=O)(=O)c2cccc(N(CCCC(=O)O)CC(C)C)n2)ccc1C(F)(F)F [Compound 129, 4-(isobutyl(6-(N-(6-(o-tolyl)-5-(trifluoromethyl)pyridin-2-yl)sulfamoyl)pyridin-2-yl)amino)butanoic Acid] | 0.154 | 83 | 1.08 | – |
| CCCCN(CCCC(=O)O)c1cccc(S(=O)(=O)Nc2ccc(C(F)(F)F)c(-c3cc(F)ccc3C)n2)n1 [Compound 102, 4-(butyl(6-(N-(6-(5-fluoro-2-methylphenyl)-5-(trifluoromethyl)pyridin-2-yl)sulfamoyl)pyridin-2-yl)amino)butanoic Acid] | 0.131 | 298 | 1.26 | – |
| Cc1ccccc1-c1nc(NS(=O)(=O)c2cccc(N3CCC[C@@H](CCC(=O)O)C3)n2)ccc1C(F)(F)F (single isomer, unassigned) [Compound 63] | 0.017 | 149 | 1.46 | – |
| CCCN(CCC(=O)O)c1cccc(S(=O)(=O)Nc2ccc(C(F)(F)F)c(-c3ccccc3C)n2)n1 [Compound 148, 3-(propyl(6-(N-(6-(o-tolyl)-5-(trifluoromethyl)pyridin-2-yl)sulfamoyl)pyridin-2-yl)amino)propanoic Acid] | 0.179 | 247 | 1.45 | – |
| CCN(CCC(=O)O)c1cccc(S(=O)(=O)Nc2ccc(C(F)(F)F)c(-c3cccc(F)c3C)n2)n1 [Compound 56, 3-(ethyl(6-(N-(6-(3-fluoro-2-methylphenyl)-5-(trifluoromethyl)pyridin-2-yl)sulfamoyl)pyridin-2-yl)amino)propanoic Acid] | 0.373 | 131 | 2.17 | 906 |
| Cc1ccc(F)cc1-c1nc(NS(=O)(=O)c2cccc(N(C)CCCC(=O)O)n2)ccc1C(F)(F)F [Compound 92, 4-((6-(N-(6-(5-fluoro-2-methylphenyl)-5-(trifluoromethyl)pyridin-2-yl)sulfamoyl)pyridin-2-yl)(methyl)amino)butanoic Acid] | 0.394 | 123 | 1.82 | – |
| Cc1ccc(F)cc1-c1nc(NS(=O)(=O)c2cccc(N(C)CCCCC(=O)O)n2)ccc1C(F)(F)F [Compound 68, 5-((6-(N-(6-(5-fluoro-2-methylphenyl)-5-(trifluoromethyl)pyridin-2-yl)sulfamoyl)pyridin-2-yl)(methyl)amino)pentanoic Acid] | 0.423 | 116 | 1.35 | 996 |
| CCN(CCC(=O)O)c1cccc(S(=O)(=O)Nc2ccc(C(F)(F)F)c(-c3ccccc3C)n2)n1 [Compound 71, 3-(ethyl(6-(N-(6-(o-tolyl)-5-(trifluoromethyl)pyridin-2-yl)sulfamoyl)pyridin-2-yl)amino)propanoic Acid] | 0.365 | 137 | 2.36 | – |
